Several values for one entry are separate records, joined by “and”; a condition that tells them apart may be missing. Equal values may be shown once.
Columns and labels:
Assay type in all cases: cell-based
GPR139 [1] = biological target: T1, GPR139 (Homo sapiens, UniProt Q6DWJ6); assay: Ca2+ mobilization assay, agonist mode, stable GPR139-CHOk1 cell line; conditions: for EC50 / Emax: Supplementary Table 2, mean ± SEM; for EC50: read-out: pEC50 Ca2+ (converted); for Emax: normalized to Lundbeck Cmp 1a, read-out: Emax (%) Ca2+
T1 sequence (Q6DWJ6 1-353): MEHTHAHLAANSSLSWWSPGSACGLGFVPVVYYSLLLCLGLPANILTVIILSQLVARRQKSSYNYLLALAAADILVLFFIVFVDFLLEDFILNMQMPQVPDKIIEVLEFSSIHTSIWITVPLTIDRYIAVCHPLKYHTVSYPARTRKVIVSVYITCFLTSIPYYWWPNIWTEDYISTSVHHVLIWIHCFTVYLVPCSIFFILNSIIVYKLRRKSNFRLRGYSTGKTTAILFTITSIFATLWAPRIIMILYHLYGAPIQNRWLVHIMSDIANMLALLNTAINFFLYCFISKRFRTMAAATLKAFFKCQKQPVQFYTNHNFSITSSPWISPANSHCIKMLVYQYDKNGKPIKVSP
In short: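 Agonist activity of compounds is assessed in stably transfected CHO-K1 cells using the calcium dye Fluo-4 at 37 °C in HEPES-buffered HBSS (pH 7.4). Efficacy is expressed relative to the reference agonist Lundbeck Cmp 1a, set as 100%.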

GPR139 [2] = biological target: T1, GPR139; assay: Ca2+ mobilization assay, antagonist mode (EC80 800 nM Lundbeck Cmp 1a after 20 min preincubation), GPR139-CHOk1; conditions: individual replicates (Supplementary Figure 4)
In short: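 Antagonist mode: 800 nM (EC80) reference agonist Lundbeck Cmp 1a added following 20 min pre-incubation with 10 µM compound. GPR139-CHOk1 cells, Fluo-4 dye, probenecid-containing HEPES buffer pH 7.4; intracellular Ca2+ measured at 37 °C (ex 485, em 525 nm).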

[3] = biological target: T2, human muscarinic acetylcholine M1 receptor (M1R) (Homo sapiens, UniProt P11229); assay: Ca2+ mobilization counter-screen in M1R-CHOk1 cells; conditions: individual replicates (Supplementary Figure 5);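 further: 10 µM test compound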
T2 sequence (P11229 1-460): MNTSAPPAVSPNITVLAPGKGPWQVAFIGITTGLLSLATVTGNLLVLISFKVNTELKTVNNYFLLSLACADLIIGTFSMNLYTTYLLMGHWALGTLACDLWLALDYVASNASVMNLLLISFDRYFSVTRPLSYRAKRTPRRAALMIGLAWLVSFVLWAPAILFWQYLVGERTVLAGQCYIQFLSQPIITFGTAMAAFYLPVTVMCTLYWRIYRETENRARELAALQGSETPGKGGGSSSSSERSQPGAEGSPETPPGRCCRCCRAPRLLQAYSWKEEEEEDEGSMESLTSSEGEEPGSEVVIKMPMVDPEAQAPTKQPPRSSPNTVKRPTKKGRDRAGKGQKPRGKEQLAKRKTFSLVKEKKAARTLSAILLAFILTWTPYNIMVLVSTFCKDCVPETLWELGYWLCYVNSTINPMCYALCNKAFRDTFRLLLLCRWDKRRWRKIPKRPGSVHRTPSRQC
In short: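 Counter-screen used CHO-K1 cells stably carrying human M1R, Fluo-4 AM-loaded (2 µM, 1 h, 37 °C). Calcium signal measured at 485/525 nm after compound addition.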

[4] = Agonist mode, individual replicates (Supplementary Figure 4)
[5] = log [Compound] M = -4.5, individual replicate columns
[6] = log [Compound] M = -5.0, individual replicate columns
[7] = log [Compound] M = -5.5, individual replicate columns
[8] = log [Compound] M = -6.0, individual replicate columns
[9] = log [Compound] M = -6.5, individual replicate columns
[10] = log [Compound] M = -7.0, individual replicate columns
[11] = log [Compound] M = -7.5, individual replicate columns
[12] = log [Compound] M = -8.0, individual replicate columns
[13] = log [Compound] M = -8.5, individual replicate columns
[14] = log [Compound] M = -9.0, individual replicate columns

EC50 (GPR139 [1])	Emax (GPR139 [1])	SMILES	Ca2+ signal (% of Cmp 1a) (GPR139 [1]; [4])	Ca2+ signal (% of Cmp 1a) (GPR139 [1]; [5])	Ca2+ signal (% of Cmp 1a) (GPR139 [1]; [6])	Ca2+ signal (% of Cmp 1a) (GPR139 [1]; [7])	Ca2+ signal (% of Cmp 1a) (GPR139 [1]; [8])	Ca2+ signal (% of Cmp 1a) (GPR139 [1]; [9])	Ca2+ signal (% of Cmp 1a) (GPR139 [1]; [10])	Ca2+ signal (% of Cmp 1a) (GPR139 [1]; [11])	Ca2+ signal (% of Cmp 1a) (GPR139 [1]; [12])	Ca2+ signal (% of Cmp 1a) (GPR139 [1]; [13])	Ca2+ signal (% of Cmp 1a) (GPR139 [1]; [14])	Ca2+ signal (% of Cmp 1a) (GPR139 [2])	Ca2+ signal (% of Carbachol) [3]
200 nM	113 ± 9%	COc1cc(-c2nc(CC(=O)NC(C)c3ccccc3)no2)ccn1 (stereo not drawn) [Compound 1.7, COC1=NC=CC(C2=NC(CC(NC(C3=CC=CC=C3)C)=O)=NO2)=C1]	105 % of Cmp 1a and 108 % of Cmp 1a and 111 % of Cmp 1a	109 % of Cmp 1a and 102 % of Cmp 1a and 120 % of Cmp 1a	102 % of Cmp 1a and 110 % of Cmp 1a and 134 % of Cmp 1a	95 % of Cmp 1a and 141 % of Cmp 1a and 154 % of Cmp 1a	70 % of Cmp 1a and 89 % of Cmp 1a and 113 % of Cmp 1a	61 % of Cmp 1a and 84 % of Cmp 1a and 68 % of Cmp 1a	40 % of Cmp 1a and 48 % of Cmp 1a and 53 % of Cmp 1a	13 % of Cmp 1a and 22 % of Cmp 1a and 34 % of Cmp 1a	1.88 % of Cmp 1a and 6 % of Cmp 1a and 10 % of Cmp 1a	4.28 % of Cmp 1a and 11 % of Cmp 1a and 7 % of Cmp 1a	-0.46 % of Cmp 1a and 10 % of Cmp 1a and 7 % of Cmp 1a	-1.33 % of Cmp 1a and 38 % of Cmp 1a and -9 % of Cmp 1a	-3 % of Carbachol and 5.61 % of Carbachol and 2.51 % of Carbachol
631 nM	93 ± 11%	Cc1cc(-c2nc(CC(=O)NC(C)c3ccccc3)no2)n(C)n1 (stereo not drawn) [Compound 1.16, CC(C1=CC=CC=C1)NC(CC2=NOC(C3=CC(C)=NN3C)=N2)=O]	103 % of Cmp 1a and 82 % of Cmp 1a and 85 % of Cmp 1a	93 % of Cmp 1a and 107 % of Cmp 1a and 110 % of Cmp 1a and 60 % of Cmp 1a	86 % of Cmp 1a and 100 % of Cmp 1a and 83 % of Cmp 1a and 67 % of Cmp 1a	73 % of Cmp 1a and 90 % of Cmp 1a and 92 % of Cmp 1a and 46 % of Cmp 1a	52 % of Cmp 1a and 66 % of Cmp 1a and 72 % of Cmp 1a and 20 % of Cmp 1a	27 % of Cmp 1a and 50 % of Cmp 1a and 60 % of Cmp 1a and -0.5 % of Cmp 1a	9 % of Cmp 1a and 39 % of Cmp 1a and 26 % of Cmp 1a and -9.5 % of Cmp 1a	0.333 % of Cmp 1a and 7 % of Cmp 1a and 17 % of Cmp 1a and 1.5 % of Cmp 1a	-3 % of Cmp 1a (2×) and -1 % of Cmp 1a and 9 % of Cmp 1a	0 % of Cmp 1a and -5 % of Cmp 1a and 15 % of Cmp 1a and -2.5 % of Cmp 1a	1.67 % of Cmp 1a and -3 % of Cmp 1a and 20 % of Cmp 1a and -7 % of Cmp 1a	5 % of Cmp 1a and 13 % of Cmp 1a and -4.67 % of Cmp 1a	-2 % of Carbachol and 14 % of Carbachol and 5 % of Carbachol

From PMC12775434, “Ultra-large virtual screening unveils potent agonists of the neuromodulatory orphan receptor GPR139” (Nature Communications, 2025)
